Reference: paper PMC11751314, “Engineering of acyl ligase domain in non-ribosomal peptide synthetases to change fatty acid moieties of lipopeptides” (Communications Chemistry, 2025)

Legend:
[1] = molecular target: T1, ItuAL_WT-MycACP (ituAL-ACP1) (Bacillus subtilis, UniProt Q93I56); experiment: HPLC of fatty acyl-AMP formed ([…] nm); format: biochemical; settings: 1 mM fatty acid, 1 mM ATP, 50 mM MgCl2, 50 mM HEPES pH 7.5, 0.01% Brij35, 30% DMSO, 30 °C, 30 min; 10 μM enzyme, apo-ACP
T1 construct: gene ituA; N-terminally His-tagged fusion of ItuAL (584 aa, RB14) with adjacent MycACP (ATCC6633); pET28a, E. coli BL21-AI; ACP in apo-form; catalytic pocket lies wholly in ItuAL; with Mycosubtilin synthase subunit A, first acyl carrier protein domain
T1 sequence (Q93I56 1-584): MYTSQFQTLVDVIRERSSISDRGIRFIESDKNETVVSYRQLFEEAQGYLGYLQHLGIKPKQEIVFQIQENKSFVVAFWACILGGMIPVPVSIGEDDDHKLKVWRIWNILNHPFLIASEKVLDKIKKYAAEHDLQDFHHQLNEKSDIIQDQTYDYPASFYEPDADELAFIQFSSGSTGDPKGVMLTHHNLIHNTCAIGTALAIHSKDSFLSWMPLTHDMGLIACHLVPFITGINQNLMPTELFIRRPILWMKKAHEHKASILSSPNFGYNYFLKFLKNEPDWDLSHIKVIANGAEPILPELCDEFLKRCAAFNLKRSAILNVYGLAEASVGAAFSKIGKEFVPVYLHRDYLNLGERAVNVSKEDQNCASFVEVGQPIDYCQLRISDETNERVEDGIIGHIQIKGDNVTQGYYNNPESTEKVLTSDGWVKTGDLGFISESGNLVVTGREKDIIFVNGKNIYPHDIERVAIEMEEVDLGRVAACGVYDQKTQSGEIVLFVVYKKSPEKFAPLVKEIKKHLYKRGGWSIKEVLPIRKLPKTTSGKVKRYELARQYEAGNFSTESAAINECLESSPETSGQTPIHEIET
T1 sequence (Q9R9J1 586-668 partner limits assumed): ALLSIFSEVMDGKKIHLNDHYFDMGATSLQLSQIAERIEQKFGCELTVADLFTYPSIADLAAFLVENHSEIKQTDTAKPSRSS

[2] = molecular target: T2, (ituAL-ACP1) (Bacillus subtilis, UniProt Q93I56, F208G); experiment: HPLC of fatty acyl-AMP formed ([…] nm); format: biochemical; settings: 1 mM fatty acid, 1 mM ATP, 50 mM MgCl2, 50 mM HEPES pH 7.5, 0.01% Brij35, 30% DMSO, 30 °C, 30 min; 10 μM enzyme, apo-ACP
T2 construct: gene ituA; N-terminally His-tagged fusion of ItuAL (584 aa, RB14) with adjacent MycACP (ATCC6633); pET28a, E. coli BL21-AI; ACP in apo-form; catalytic pocket lies wholly in ItuAL; with Mycosubtilin synthase subunit A, first acyl carrier protein domain
T2 sequence (Q93I56 entry or part of it F208G, one chain of several): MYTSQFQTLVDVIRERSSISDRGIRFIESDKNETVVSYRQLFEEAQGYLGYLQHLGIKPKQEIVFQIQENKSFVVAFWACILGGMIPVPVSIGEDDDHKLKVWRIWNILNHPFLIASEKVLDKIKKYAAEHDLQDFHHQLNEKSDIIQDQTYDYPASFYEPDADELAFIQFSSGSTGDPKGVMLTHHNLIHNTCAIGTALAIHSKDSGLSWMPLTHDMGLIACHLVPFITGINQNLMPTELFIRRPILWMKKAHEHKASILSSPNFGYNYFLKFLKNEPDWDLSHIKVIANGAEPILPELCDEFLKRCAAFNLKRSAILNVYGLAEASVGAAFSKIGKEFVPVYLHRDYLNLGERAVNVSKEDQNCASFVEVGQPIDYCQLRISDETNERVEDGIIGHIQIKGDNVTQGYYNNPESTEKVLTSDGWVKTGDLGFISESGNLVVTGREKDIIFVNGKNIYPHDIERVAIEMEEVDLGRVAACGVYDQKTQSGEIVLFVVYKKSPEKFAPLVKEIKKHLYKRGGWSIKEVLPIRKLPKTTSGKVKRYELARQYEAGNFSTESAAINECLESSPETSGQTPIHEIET

Structure (SMILES)	relative activity (C10 = 100%) [1]	relative activity (C10 = 100%) [2]
CCCCCCCCCCCC(=O)O [C12, lauric acid]	ItuAL_WT exhibited the highest activity against lauric acid (C12)	–
CCCCCCCCCCCCCCC(=O)O [C15, pentadecanoic acid]	–	ItuAL_F208G exhibited the highest activity against pentadecanoic acid (C15)
